Measurements taken from patent US20260053834A1, “COVALENT MODIFIERS OF AKT1 AND USES THEREOF” (Terremoto Biosciences, Inc., priority 2023, published 2026).
Read-outs that look alike come from different tables or passages of the source.

How the values were obtained:
[1] = system: LAPC4 prostate cancer cells, which express the AKT1 E17K allele; experiment: Antiproliferative effects in LAPC4 cells (CellTiter Glo, 72 h); type: cell-based; conditions: read-out: LAPC4 proliferation IC50: GeoMean IC50
How it was run: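 Cells grown in IMDM with 12% FBS, seeded at 1,000 cells/well and treated with compound dilutions in DMSO for 72 h. Intracellular ATP read by luminescence. IC50 from a log(inhibitor) vs. response Hill fit.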

AKT1 E17K = target: T1, AKT1 E17K (Homo sapiens, UniProt P31749, E17K); experiment: Live cell target engagement by NanoBRET competitive probe displacement, AKT1 E17K; type: binding; conditions: transfected HEK293 cells, 2 h at 37° C., read-out: AKT1 E17K IC50: GeoMean IC50
T1 construct: expressed in transfected cells; host or cells: HEK293
T1 sequence (P31749 whole entry E17K): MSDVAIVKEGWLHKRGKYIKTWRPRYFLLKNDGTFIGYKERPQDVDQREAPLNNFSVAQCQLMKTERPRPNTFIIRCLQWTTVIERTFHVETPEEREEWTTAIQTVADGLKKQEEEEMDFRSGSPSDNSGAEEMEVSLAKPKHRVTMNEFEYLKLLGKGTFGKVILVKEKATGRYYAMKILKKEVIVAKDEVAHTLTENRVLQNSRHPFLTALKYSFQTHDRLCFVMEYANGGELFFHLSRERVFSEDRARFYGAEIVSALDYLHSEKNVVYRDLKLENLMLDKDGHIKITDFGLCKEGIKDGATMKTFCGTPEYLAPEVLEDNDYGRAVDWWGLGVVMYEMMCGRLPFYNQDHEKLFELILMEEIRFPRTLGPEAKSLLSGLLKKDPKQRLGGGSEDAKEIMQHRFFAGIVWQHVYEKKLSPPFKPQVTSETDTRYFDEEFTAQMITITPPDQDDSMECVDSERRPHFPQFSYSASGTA

AKT1 WT = target: T2, AKT1 WT (Homo sapiens, UniProt P31749); experiment: Live cell target engagement by NanoBRET competitive probe displacement, AKT1 WT; type: binding; conditions: transfected HEK293 cells, 2 h at 37° C., read-out: AKT1 WT IC50: GeoMean IC50
T2 construct: expressed in transfected cells; host or cells: HEK293
T2 sequence (P31749 whole entry): as the sequence (P31749 whole entry E17K) above, with K17E counted along it

AKT2 = target: T3, AKT2 (Homo sapiens, UniProt P31751); experiment: Live cell target engagement by NanoBRET competitive probe displacement, AKT2; type: binding; conditions: transfected HEK293 cells, 2 h at 37° C., read-out: AKT2 IC50: GeoMean IC50
T3 construct: expressed in transfected cells; host or cells: HEK293
T3 sequence (P31751 whole entry): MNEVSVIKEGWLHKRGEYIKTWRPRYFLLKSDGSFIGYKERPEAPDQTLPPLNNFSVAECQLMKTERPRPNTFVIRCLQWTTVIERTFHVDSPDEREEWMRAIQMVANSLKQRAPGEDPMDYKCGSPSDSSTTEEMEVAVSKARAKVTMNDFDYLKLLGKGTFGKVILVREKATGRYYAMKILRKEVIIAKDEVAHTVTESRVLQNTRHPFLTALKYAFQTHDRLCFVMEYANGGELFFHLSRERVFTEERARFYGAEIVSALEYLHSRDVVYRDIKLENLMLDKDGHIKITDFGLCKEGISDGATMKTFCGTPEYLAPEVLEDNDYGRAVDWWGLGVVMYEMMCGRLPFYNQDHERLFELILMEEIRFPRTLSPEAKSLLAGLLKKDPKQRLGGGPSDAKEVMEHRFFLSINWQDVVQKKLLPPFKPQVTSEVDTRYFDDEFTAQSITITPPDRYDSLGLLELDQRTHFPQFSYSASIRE

Compound: Nc1ncccc1-c1nc2ccc(-c3ccccc3)nc2n1-c1ccc2c(c1)CC[C@@H]2NC(=O)c1ccc(C=O)c(O)c1 [Example 30, N-[(1S)-5-[2-(2-aminopyridin-3-yl)-5-phenylimidazo[4,5-b]pyridin-3-yl]-2,3-dihydro-1H-inden-1-yl]-4-formyl-3-hydroxybenzamide]
- IC50 ([1]; Homo sapiens, LAPC4, 72 h): ≥ 2000 nM
- IC50 (AKT1 E17K): 100 to 2000 nM
- IC50 (AKT1 WT): 100 to 2000 nM
- IC50 (AKT2): 100 to 2000 nM

Compound: Nc1ncccc1-c1nc2c(N3CCOCC3)cc(-n3cccn3)nc2n1-c1ccc2c(c1)CC[C@@H]2NC(=O)c1ccc(O)c(C=O)c1 [Example 224, N-[(1S)-5-[2-(2-aminopyridin-3-yl)-7-(morpholin-4-yl)-5-(pyrazol-1-yl)imidazo[4,5-b]pyridin-3-yl]-2,3-dihydro-1H-inden-1-yl]-3-formyl-4-hydroxybenzamide]
- IC50 ([1]; Homo sapiens, LAPC4, 72 h): 10 to 100 nM
- IC50 (AKT1 E17K): 10 to 100 nM
- IC50 (AKT1 WT): 10 to 100 nM
- IC50 (AKT2): 100 to 2000 nM

Compound: Nc1ncccc1-c1nc2ccc(-c3ccn(C(F)F)n3)nc2n1-c1ccc2c(c1)CC[C@@H]2NC(=O)c1cc(C=O)c(O)cc1F [Example 158, N-[(1S)-5-[2-(2-aminopyridin-3-yl)-5-[1-(difluoromethyl)pyrazol-3-yl]imidazo[4,5-b]pyridin-3-yl]-2,3-dihydro-1H-inden-1-yl]-2-fluoro-5-formyl-4-hydroxybenzamide]
- IC50 ([1]; Homo sapiens, LAPC4, 72 h): 10 to 100 nM
- IC50 (AKT1 E17K): 10 to 100 nM
- IC50 (AKT1 WT): 10 to 100 nM
- IC50 (AKT2): 100 to 2000 nM

Compound: COc1c(O)c(C=O)cc(C(=O)N[C@H]2CCc3cc(-n4c(-c5cccnc5N)nc5ccc(-n6cccn6)nc54)ccc32)c1F [Example 214, N-[(1S)-5-[2-(2-aminopyridin-3-yl)-5-(pyrazol-1-yl)imidazo[4,5-b]pyridin-3-yl]-2,3-dihydro-1H-inden-1-yl]-2-fluoro-5-formyl-4-hydroxy-3-methoxybenzamide]
- IC50 ([1]; Homo sapiens, LAPC4, 72 h): 10 to 100 nM
- IC50 (AKT1 E17K): < 10 nM
- IC50 (AKT1 WT): 10 to 100 nM
- IC50 (AKT2): 100 to 2000 nM

Compound: Nc1ncccc1-c1nc2ccc(C3CC3)nc2n1-c1ccc2c(c1)CC[C@@H]2NC(=O)c1ccc(O)c(C=O)c1 [Example 49, N-[(1S)-5-[2-(2-aminopyridin-3-yl)-5-cyclopropylimidazo[4,5-b]pyridin-3-yl]-2,3-dihydro-1H-inden-1-yl]-3-formyl-4-hydroxybenzamide]
- IC50 ([1]; Homo sapiens, LAPC4, 72 h): 100 to 2000 nM
- IC50 (AKT1 E17K): 100 to 2000 nM
- IC50 (AKT1 WT): 100 to 2000 nM
- IC50 (AKT2): ≥ 2000 nM

Compound: Nc1ncccc1-c1nc2ccc(-c3cccc(F)c3)nc2n1-c1ccc2c(c1)CC[C@@H]2NC(=O)c1ccc(O)c(C=O)c1 [Example 26, N-[(1S)-5-[2-(2-aminopyridin-3-yl)-5-(3-fluorophenyl)imidazo[4,5-b]pyridin-3-yl]-2,3-dihydro-1H-inden-1-yl]-3-formyl-4-hydroxybenzamide]
- IC50 ([1]; Homo sapiens, LAPC4, 72 h): 100 to 2000 nM
- IC50 (AKT1 E17K): 10 to 100 nM
- IC50 (AKT1 WT): 100 to 2000 nM
- IC50 (AKT2): 100 to 2000 nM

Compound: Nc1ncccc1-c1nc2ccc(-n3cccn3)nc2n1-c1ccc2c(c1)CC(F)(F)[C@@H]2NC(=O)c1ccc(O)c(C=O)c1 [Example 195, (R)—N-(5-(2-(2-aminopyridin-3-yl)-5-(1H-pyrazol-1-yl)-3H-imidazo[4,5-b]pyridin-3-yl)-2,2-difluoro-2,3-dihydro-1H-inden-1-yl)-3-formyl-4-hydroxybenzamide]
- IC50 ([1]; Homo sapiens, LAPC4, 72 h): 10 to 100 nM
- IC50 (AKT1 E17K): 10 to 100 nM
- IC50 (AKT1 WT): 100 to 2000 nM
- IC50 (AKT2): 100 to 2000 nM

Compound: CN1CC(n2ccc(-c3ccc4nc(-c5cccnc5N)n(-c5ccc6c(c5)CC[C@@H]6NC(=O)c5ccc(O)c(C=O)c5)c4n3)n2)C1 [Example 165, (S)—N-(5-(2-(2-aminopyridin-3-yl)-5-(1-(1-methylazetidin-3-yl)-1H-pyrazol-3-yl)-3H-imidazo[4,5-b]pyridin-3-yl)-2,3-dihydro-1H-inden-1-yl)-3-formyl-4-hydroxybenzamide]
- IC50 ([1]; Homo sapiens, LAPC4, 72 h): 100 to 2000 nM
- IC50 (AKT1 E17K): 10 to 100 nM
- IC50 (AKT1 WT): 10 to 100 nM
- IC50 (AKT2): 100 to 2000 nM

Compound: Nc1ncccc1-c1nc2ccc(-c3cccnc3)nc2n1-c1ccc2c(c1)CC[C@@H]2NC(=O)c1ccc(O)c(C=O)c1 [Example 23, N-[(1S)-5-[2-(2-aminopyridin-3-yl)-5-(pyridin-3-yl)imidazo[4,5-b]pyridin-3-yl]-2,3-dihydro-1H-inden-1-yl]-3-formyl-4-hydroxybenzamide]
- IC50 ([1]; Homo sapiens, LAPC4, 72 h): 10 to 100 nM
- IC50 (AKT1 E17K): 10 to 100 nM
- IC50 (AKT1 WT): 10 to 100 nM
- IC50 (AKT2): 100 to 2000 nM

Compound: CN(C)c1nc2cc(C(=O)N[C@H]3CCc4cc(-n5c(-c6cccnc6N)nc6ccc(-n7cccn7)nc65)ccc43)cc(C=O)c2[nH]1 [Example 175, (S)—N-(5-(2-(2-aminopyridin-3-yl)-5-(1H-pyrazol-1-yl)-3H-imidazo[4,5-b]pyridin-3-yl)-2,3-dihydro-1H-inden-1-yl)-2-(dimethylamino)-7-formyl-1H-benzo[d]imidazole-5-carboxamide]
- IC50 ([1]; Homo sapiens, LAPC4, 72 h): < 10 nM
- IC50 (AKT1 E17K): < 10 nM
- IC50 (AKT1 WT): < 10 nM
- IC50 (AKT2): 10 to 100 nM

Compound: Cc1cnc(-c2ccc3nc(-c4cccnc4N)n(-c4ccc5c(c4)CC[C@@H]5NC(=O)c4ccc(O)c(C=O)c4)c3n2)o1 [Example 174, N-[(1S)-5-[2-(2-aminopyridin-3-yl)-5-(5-methyl-1,3-oxazol-2-yl)imidazo[4,5-b]pyridin-3-yl]-2,3-dihydro-1H-inden-1-yl]-3-formyl-4-hydroxybenzamide]
- IC50 ([1]; Homo sapiens, LAPC4, 72 h): 100 to 2000 nM
- IC50 (AKT1 E17K): 10 to 100 nM
- IC50 (AKT1 WT): 10 to 100 nM
- IC50 (AKT2): 100 to 2000 nM

Compound: Nc1ncccc1-c1nc2ccc(-n3ccc(N4CCC4)n3)nc2n1-c1ccc2c(c1)CC[C@@H]2NC(=O)c1ccc(O)c(C=O)c1 [Example 156, (S)—N-(5-(2-(2-aminopyridin-3-yl)-5-(3-(azetidin-1-yl)-1H-pyrazol-1-yl)-3H-imidazo[4,5-b]pyridin-3-yl)-2,3-dihydro-1H-inden-1-yl)-3-formyl-4-hydroxybenzamide]
- IC50 ([1]; Homo sapiens, LAPC4, 72 h): < 10 nM
- IC50 (AKT1 E17K): 10 to 100 nM
- IC50 (AKT1 WT): 10 to 100 nM
- IC50 (AKT2): 10 to 100 nM

Compound: Nc1ncccc1-c1nc2ccc(-n3cccn3)nc2n1-c1ccc2c(c1)CC(F)[C@@H]2NC(=O)c1ccc(O)c(C=O)c1 (single isomer, unassigned) [Example 256, N-[(1R,2R*)-5-[2-(2-aminopyridin-3-yl)-5-(pyrazol-1-yl)imidazo[4,5-b]pyridin-3-yl]-2-fluoro-2,3-dihydro-1H-inden-1-yl]-3-formyl-4-hydroxybenzamide]
- IC50 [1]: 10 to 100 nM
- IC50 (AKT1 E17K): 10 to 100 nM
- IC50 (AKT1 WT): 10 to 100 nM
- IC50 (AKT2): 100 to 2000 nM

Compound: Nc1ncccc1-c1nc2ccc(-c3cnccn3)nc2n1-c1ccc2c(c1)CC[C@@H]2NC(=O)c1cc(F)c(O)c(C=O)c1 [Example 70, (S)—N-(5-(2-(2-aminopyridin-3-yl)-5-(pyrazin-2-yl)-3H-imidazo[4,5-b]pyridin-3-yl)-2,3-dihydro-1H-inden-1-yl)-3-fluoro-5-formyl-4-hydroxybenzamide]
- IC50 ([1]; Homo sapiens, LAPC4, 72 h): 100 to 2000 nM
- IC50 (AKT1 E17K): 10 to 100 nM
- IC50 (AKT1 WT): 10 to 100 nM
- IC50 (AKT2): 100 to 2000 nM

Compound: CN1CCN(c2ccc3nc(-c4cccnc4N)n(-c4ccc5c(c4)CC[C@@H]5NC(=O)c4ccc(O)c(C=O)c4)c3n2)CC1 [Example 38, (S)—N-(5-(2-(2-aminopyridin-3-yl)-5-(4-methylpiperazin-1-yl)-3H-imidazo[4,5-b]pyridin-3-yl)-2,3-dihydro-1H-inden-1-yl)-3-formyl-4-hydroxybenzamide]
- IC50 ([1]; Homo sapiens, LAPC4, 72 h): 100 to 2000 nM
- IC50 (AKT1 E17K): 10 to 100 nM
- IC50 (AKT1 WT): 100 to 2000 nM
- IC50 (AKT2): ≥ 2000 nM
